# Source: patent US9790169B2, “IDO inhibitors” (BRISTOL-MYERS SQUIBB COMPANY, priority 2015, dated 2017)
# Molecular target: human IDO1 (Homo sapiens, UniProt P14902)
# Experiment: Assessment of human IDO-1 inhibitory activity in HEK cells (human IDO1/HEK293 cells, kynurenine read-out with Ehrlich reagent, absorbance 490 nm)
# Format: cell-based
# Parameters: expressed in transfected cells
# Settings: HEK Human IDO-1 cellular assay
# In short: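 Kynurenine output from stably IDO1-transfected HEK293 cells (10,000/well, phenol red-free RPMI, 10% FBS) after 20 h compound exposure at 37 °C. The reaction was stopped with 0.2% TCA and heated 30 min at 50 °C, then the supernatant was mixed with Ehrlich reagent and read at 490 nm. IC50 was set against DMSO and a 500 nM reference standard as 0 and 100% inhibition.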
# Sequence of human IDO1 (P14902 whole entry): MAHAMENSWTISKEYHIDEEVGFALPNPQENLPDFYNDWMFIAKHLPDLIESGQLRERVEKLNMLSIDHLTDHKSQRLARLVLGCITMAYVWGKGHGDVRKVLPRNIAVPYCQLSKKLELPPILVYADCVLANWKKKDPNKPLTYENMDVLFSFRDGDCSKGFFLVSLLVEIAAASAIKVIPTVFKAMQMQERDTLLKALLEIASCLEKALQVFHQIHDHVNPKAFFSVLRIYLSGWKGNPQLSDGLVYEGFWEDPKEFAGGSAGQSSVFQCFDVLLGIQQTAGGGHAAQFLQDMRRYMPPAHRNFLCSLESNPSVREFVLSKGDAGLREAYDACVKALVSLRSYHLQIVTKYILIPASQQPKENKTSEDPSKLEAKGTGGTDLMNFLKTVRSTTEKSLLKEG
row,SMILES,IC50
1,"CCOc1ncc(Nc2cc([C@H](CC)CC(=O)O)ccc2N(CC)C2CCCCC2)cn1 (single isomer, unassigned) [Example 287]",< 5 nM
2,"CC[C@H](CC(=O)O)c1ccc(N2CCOC[C@@H]2C(C)C)c(NC(=O)Nc2ccc(C)cc2)c1 (single isomer, unassigned) [Example 85]",> 50 nM
3,"COCC(CC(=O)O)c1cc(F)c(N(CC(C)C)CC(C)C)c(NC(=O)Nc2cncnc2)c1 (single isomer, unassigned) [Example 1183, 3-(4-(Diisobutylamino)-3-fluoro-5-(3-(pyrimidin-5-yl)ureido)phenyl)-4-methoxybutanoic acid]",< 50 nM
4,"CCC(CC(=O)O)c1cc(NC(=O)Nc2cnc(C)nc2)c(N(CC(C)C)C2CCCCC2)cc1F (single isomer, unassigned) [Example 1126, 3-(4-(Cyclohexyl(isobutyl)amino)-2-fluoro-5-(3-(2-methylpyrimidin-5-yl)ureido)phenyl)pentanoic acid]",< 5 nM
5,"CC[C@@H](CC(=O)O)c1ccc(N(CC)C2CCOCC2)c(Nc2nc3cc(C)nn3cc2F)c1 (single isomer, unassigned) [Example 469]",> 50 nM
6,"CCCN(c1ccc([C@@H](CC)CC(=O)O)cc1Nc1ccc(C#N)cc1)C1CCOCC1 (single isomer, unassigned) [Example 536]",< 5 nM
7,"CCOc1ccc(NC(=O)Nc2cc(C(CC)CC(=O)O)c(F)cc2N(CC(C)C)CC(C)C)c(F)c1 (racemic) [Example 1137, (±)-3-(4-(Diisobutylamino)-5-(3-(4-ethoxy-2-fluorophenyl)ureido)-2-fluorophenyl)pentanoic acid]",< 5 nM
8,"COCC(CC(=O)O)c1cc(F)c(N(CC(C)C)CC(C)C)c(NC(=O)Nc2cc(C)on2)c1 (single isomer, unassigned) [Example 1184, 3-(4-(Diisobutylamino)-3-fluoro-5-(3-(5-methylisoxazol-3-yl)ureido)phenyl)-4-methoxybutanoic acid]",< 50 nM
9,"CCC(CC(=O)O)c1cc(F)c(N(CC(C)C)CC(C)C)c(Nc2ccc(OCC(F)(F)F)cc2)c1 (single isomer, unassigned) [Example 98, 3-(4-(diisobutylamino)-3-fluoro-5-((4-(2,2,2-trifluoroethoxy)phenyl)amino)phenyl)pentanoic acid]",> 50 nM
10,"CC[C@H](CC(=O)O)c1ccc(N(CC)C2CCOCC2)c(Nc2ccc(OCC3CC3)cc2)c1 (single isomer, unassigned) [Example 516]",< 5 nM
11,"CCCN(c1ccc([C@@H](CC)CC(=O)O)cc1Nc1ccc(Cl)cc1)C1CCOCC1 (single isomer, unassigned) [Example 541]",< 5 nM
12,"CCOc1ncc(Nc2cc([C@@H](CC)CC(=O)O)ccc2N(CC)C2CCOCC2)cn1 (single isomer, unassigned) [Example 455]",< 50 nM
13,"COCC(CC(=O)O)c1ccc(N(CC2CC2)C2CCOCC2)c(Nc2ccc(C#N)c(C)c2)c1 (single isomer, unassigned) [Example 692, 3-(3-((4-cyano-3-methylphenyl)amino)-4-((cyclopropylmethyl) (tetrahydro-2H-pyran-4-yl)amino)phenyl)-4-methoxybutanoic acid]",< 50 nM
14,"CCC(CC(=O)O)c1ccc(N2CCC[C@H]2C(C)(C)O)c(Nc2ccc(Cl)cc2)c1 (single isomer, unassigned) [Example 836]",< 50 nM
15,"CC[C@H](CC(=O)O)c1ccc(N(CC)C2CCOCC2)c(NC(=O)Nc2ccc3c(c2)CS(=O)(=O)C3)c1 (single isomer, unassigned) [Example 533]",> 50 nM
16,"Cc1nc2ccc(Nc3cc(C(CC(=O)O)c4ccccc4)cc(F)c3N(CC(C)C)CC(C)C)cc2s1 (single isomer, unassigned) [Example 130, 3-(4-(Diisobutylamino)-3-fluoro-5-((2-methylbenzo[d]thiazol-6-yl)amino)phenyl)-3-phenylpropanoic acid]",> 50 nM
17,"Cc1cc(NC(=O)Nc2cc(C(CC(=O)O)C3CC3)ccc2N(CC(C)C)C2CCOCC2)no1 (single isomer, unassigned) [Example 1201 Enantiomer 1, 3-Cyclopropyl-3-(4-(isobutyl(tetrahydro-2H-pyran-4-yl)amino)-3-(3-(5-methylisoxazol-3-yl)ureido)phenyl)propanoic acid]",< 50 nM
18,"CCC(CC(=O)O)c1cc(F)c(N(CC(C)C)CC(C)C)c(NC(=O)Nc2ccc(C)c(F)c2)c1 (single isomer, unassigned) [982-1]",< 5 nM
19,"CCOc1ncc(Nc2cc([C@H](CC)CC(=O)O)ccc2N2CCOC[C@@H]2C(C)C)cn1 (single isomer, unassigned) [Example 94]",< 50 nM
20,"CC[C@H](CC(=O)O)c1ccc(N(CC)C2CCCCC2)c(Nc2ccc(OC(F)F)cc2)c1 (single isomer, unassigned) [Example 290]",< 5 nM
21,"CCOc1ccc(NC(=O)Nc2cc(C(CC)CC(=O)O)c(F)cc2N(CC(C)C)C2CCCCC2)c(F)c1 (single isomer, unassigned) [Example 1117, 3-(4-(Cyclohexyl(isobutyl)amino)-5-(3-(4-ethoxy-2-fluorophenyl)ureido)-2-fluorophenyl)pentanoic acid]",< 5 nM
22,"CCN(c1ccc([C@@H](COC)CC(=O)O)cc1Nc1ccc(F)cc1)C1CCOCC1 (single isomer, unassigned) [Example 375]",< 5 nM
23,"CCC(CC(=O)O)c1ccc(N2C[C@@H](C)O[C@@H](C)C2)c(Nc2ccc(C#N)cc2)c1 (single isomer, unassigned) [Example 764]",< 50 nM
24,Cc1ccc(CC(=O)Nc2cc(C(CC(=O)O)C(C)C)ccc2N(CC(C)C)CC(C)C)cc1 (racemic) [Example 1010],< 5 nM
25,"CCc1cnc(Nc2cc([C@H](CC)CC(=O)O)ccc2N(CC(C)(C)O)C2CCCCC2)nc1 (single isomer, unassigned) [Example 241]",< 50 nM
26,"CC(C)(CC(=O)O)c1ccc(N2CCC[C@H]2C(C)(C)O)c(Nc2ccc(Cl)cc2)c1 [Example 808, (S)-3-(3-((4-chlorophenyl)amino)-4-(2-(2-hydroxypropan-2-yl)pyrrolidin-1-yl)phenyl)-3-methylbutanoic acid]",< 50 nM
27,"CC[C@H](CC(=O)O)c1ccc(N(CC)C2CCOCC2)c(Nc2ccc(Cl)cc2)c1 (single isomer, unassigned) [Example 499]",< 5 nM
28,"CCN(c1ccc([C@H](COC)CC(=O)O)cc1NC(=O)Nc1cc(C)no1)C1CCOCC1 (single isomer, unassigned) [Example 440]",> 50 nM
29,"CCOc1ncc(Nc2cc([C@@H](CC)CC(=O)O)ccc2N(CC(C)(C)O)C2CCCCC2)cn1 (single isomer, unassigned) [Example 229]",< 50 nM
30,"CC[C@@H](CC(=O)O)c1ccc(N(CC(C)(C)O)C2CCCCC2)c(Nc2ccc(Cl)cc2)c1 (single isomer, unassigned) [Example 231]",< 5 nM
